According to US7956190B2, “Benzimidazole amido derivatives as kinase inhibitors” (Hoffmann-La Roche Inc., priority 2007, dated 2011):
pIC50: −log10 of the molar value.

System: HCT 116 cells
Assay: CellTiter-Glo Assay in HCT 116 Cells
Assay type: cell-based
Conditions: HCT 116 human colon carcinoma cells, 5 days (120 h) incubation, CellTiter-Glo luminescence, tested in triplicate
Description: CellTiter-Glo™ Assay in HCT 116 Cells
The CellTiter-Glo™ Luminescent Cell Viability Assay (Promega) is a homogeneous method of determining the number of viable cells in culture based on quantitation of the ATP present, which signals the presence of metabolically active cells.
HCT 116 cells (human colon carcinoma, ATCC-No. CCl-247) were cultivated in RPMI 1640 medium with GlutaMAX™ I (Invitrogen, Cat-No. 61870-010), 5% Fetal Calf Serum (FCS, Sigma Cat-No. F4135 (FBS)); 100 Units/ml penicillin/100 μg/ml streptomycin (=Pen/Strep from Invitrogen Cat. No. 15140). For the assay the cells were seeded in 384 well plates, 1000 cells per well, in the same medium. The next day the test compounds were added in various concentrations ranging from 30 μM to 0.0015 μM (10 concentrations, 1:3 diluted). After 5 days the CellTiter-Glo™ assay was done according to the instructions of the manufacturer (CellTiter-Glo™ Luminescent Cell Viability Assay, from Promega). In brief: the cell-plate was equilibrated to room temperature for approximately 30 minutes and than the CellTiter-Glo™ reagent was added. The contents were carefully mixed for 15 minutes to induce cell lysis. After 45 minutes the luminescent signal was measured in Victor 2, (scanning multiwell spectrophotometer, Wallac).
• Medium: RPMI 1640 with GlutaMAX™ I (Invitrogen, Cat-Nr. 61870), 5% FCS (Sigma Cat.-No. F4135), Pen/Strep (Invitrogen, Cat No. 15140). • HCT116 (ATCC-No. CCl-247): 1000 cells in 60 μl per well of 384 well plate (Greiner 781098, μClear-plate white) • After seeding incubate plates 24 h at 37° C., 5% CO2 2nd. Day: Induction (Treatment with Compounds, 10 Concentrations):
In order to achieve a final concentration of 30 μM as highest concentration 3.5 μl of 10 mM compound stock solution were added directly to 163 μl media. Then step e) of the dilution procedure described below, was followed.

SMILES | pIC50
CC(C)(C)C(=O)Nc1cccc2nc(-c3c(NC[C@@H](O)c4ccccc4)cc[nH]c3=O)[nH]c12 [Example B-3, N-{2-[4-((S)-2-Hydroxy-2-phenyl-ethylamino)-2-oxo-1,2-dihydro-pyridin-3-yl]-3H-benzoimidazol-4-yl}-2,2-dimethyl-propionamide] | 4.82 to 6.00
O=C(Nc1cccc2nc(-c3c(NC[C@@H](O)c4ccccc4)cc[nH]c3=O)[nH]c12)c1ccc(C(F)(F)F)cc1 [Example A-15, N-{2-[4-((S)-2-Hydroxy-2-phenyl-ethylamino)-2-oxo-1,2-dihydro-pyridin-3-yl]-3H-benzoimidazol-4-yl}-4-trifluoromethyl-benzamide] | 4.82 to 6.00
O=C(Nc1cccc2nc(-c3c(NCc4cccc(Cl)c4)cc[nH]c3=O)[nH]c12)c1ccccc1 [Example B-2, N-{2-[4-(3-Chloro-benzylamino)-2-oxo-1,2-dihydro-pyridin-3-yl]-3H-benzoimidazol-4-yl}-benzamide] | 4.82 to 6.00
O=C(Nc1cccc2nc(-c3c(NC[C@@H](O)c4ccccc4)cc[nH]c3=O)[nH]c12)c1ccc(F)cc1 [Example A-12, 4-Fluoro-N-{2-[4-((S)-2-hydroxy-2-phenyl-ethylamino)-2-oxo-1,2-dihydro-pyridin-3-yl]-3H-benzoimidazol-4-yl}-benzamide] | 4.82 to 6.00
O=C(Nc1cccc2nc(-c3c(NCC(O)c4ccccc4)cc[nH]c3=O)[nH]c12)c1cccc(Cl)c1 (centres unmarked) [Example A-11, 3-Chloro-N-[2-[4-(2-hydroxy-2-phenyl-ethylamino)-2-oxo-1,2-dihydro-pyridin-3-yl]-3H-benzoimidazol-4-yl]-benzamide] | 4.82 to 6.00
O=C(Nc1cccc2nc(-c3c(NCc4ccccc4)cc[nH]c3=O)[nH]c12)c1ccc(Cl)cc1 [Example A-18, N-[2-(4-Benzylamino-2-oxo-1,2-dihydro-pyridin-3-yl)-3H-benzoimidazol-4-yl]-4-chloro-benzamide] | 4.82 to 6.00
O=C(Nc1cccc(F)c1)Nc1cccc2nc(-c3c(NC[C@@H](O)c4ccccc4)cc[nH]c3=O)[nH]c12 [Example D-1, 1-(3-Fluoro-phenyl)-3-{2-[4-((S)-2-hydroxy-2-phenyl-ethylamino)-2-oxo-1,2-dihydro-pyridin-3-yl]-3H-benzoimidazol-4-yl}-urea] | 4.82 to 6.00
O=C(COc1ccc(Cl)cc1)Nc1cccc2nc(-c3c(NC[C@@H](O)c4ccccc4)cc[nH]c3=O)[nH]c12 [Example B-11, 2-(4-Chloro-phenoxy)-N-{2-[4-((S)-2-hydroxy-2-phenyl-ethylamino)-2-oxo-1,2-dihydro-pyridin-3-yl]-3H-benzoimidazol-4-yl}-acetamide] | 4.82 to 6.00
O=C(Nc1ccccc1Cl)Nc1cccc2[nH]c(-c3c(NC[C@@H](O)c4cccc(Cl)c4)cc[nH]c3=O)nc12 [Example D-8, 1-(2-Chloro-phenyl)-3-(2-{4-[(S)-2-(3-chloro-phenyl)-2-hydroxy-ethylamino]-2-oxo-1,2-dihydro-pyridin-3-yl}-1H-benzoimidazol-4-yl)-urea] | 4.82 to 6.00
O=C(Nc1cccc2nc(-c3c(NC[C@@H](O)c4ccccc4)cc[nH]c3=O)[nH]c12)c1cccc(C(F)(F)F)c1 [Example B-5, N-{2-[4-((S)-2-Hydroxy-2-phenyl-ethylamino)-2-oxo-1,2-dihydro-pyridin-3-yl]-3H-benzoimidazol-4-yl}-3-trifluoromethyl-benzamide] | 4.82 to 6.00
COCC(=O)Nc1cccc2nc(-c3c(NC[C@@H](O)c4ccccc4)cc[nH]c3=O)[nH]c12 [Example B-13, N-{2-[4-((S)-2-Hydroxy-2-phenyl-ethylamino)-2-oxo-1,2-dihydro-pyridin-3-yl]-3H-benzoimidazol-4-yl}-2-methoxy-acetamide] | 4.82 to 6.00
O=C(Nc1cccc2nc(-c3c(NCc4ccccn4)cc[nH]c3=O)[nH]c12)c1ccccc1 [Example A-5, N-(2-{2-oxo-4-[(pyridin-2-ylmethyl)-amino]-1,2-dihydro-pyridin-3-yl}-3H-benzoimidazol-4-yl)-benzamide] | 4.82 to 6.00
O=C(NCc1ccccc1)Nc1cccc2nc(-c3c(NC[C@@H](O)c4ccccc4)cc[nH]c3=O)[nH]c12 [Example D-7, 1-Benzyl-3-{2-[4-((S)-2-hydroxy-2-phenyl-ethylamino)-2-oxo-1,2-dihydro-pyridin-3-yl]-3H-benzoimidazol-4-yl}-urea] | 4.82 to 6.00
O=C(Nc1cccc2nc(-c3c(NCc4ccccc4)cc[nH]c3=O)[nH]c12)c1ccccc1Cl [Example A-17, N-[2-(4-Benzylamino-2-oxo-1,2-dihydro-pyridin-3-yl)-3H-benzoimidazol-4-yl]-2-chloro-benzamide] | 4.82 to 6.00
COC(=O)Nc1cccc2[nH]c(-c3c(NC[C@@H](O)c4cccc(Cl)c4)cc[nH]c3=O)nc12 [Example C-7, (2-{4-[(S)-2-(3-Chloro-phenyl)-2-hydroxy-ethylamino]-2-oxo-1,2-dihydro-pyridin-3-yl}-1H-benzoimidazol-4-yl)-carbamic acid methylester] | 4.82 to 6.00
O=C(Nc1cccc2nc(-c3c(NCC(O)c4ccccc4)cc[nH]c3=O)[nH]c12)c1ccccc1Cl (centres unmarked) [Example B-10, 2-Chloro-N-{2-[4-(2-hydroxy-2-phenyl-ethylamino)-2-oxo-1,2-dihydro-pyridin-3-yl]-3H-benzoimidazol-4-yl}-benzamide] | 4.82 to 6.00
O=C(Nc1cccc2nc(-c3c(NC[C@@H](O)c4ccccc4)cc[nH]c3=O)[nH]c12)C1CC1 [Example B-8, Cyclopropanecarboxylic acid {2-[4-((S)-2-hydroxy-2-phenyl-ethylamino)-2-oxo-1,2-dihydro-pyridin-3-yl]-3H-benzoimidazol-4-yl}-amide] | 4.82 to 6.00
O=C(Cc1ccccc1)Nc1cccc2nc(-c3c(NC[C@@H](O)c4ccccc4)cc[nH]c3=O)[nH]c12 [Example B-1, N-{2-[4-((S)-2-Hydroxy-2-phenyl-ethylamino)-2-oxo-1,2-dihydro-pyridin-3-yl]-3H-benzoimidazol-4-yl}-2-phenyl-acetamide] | 4.82 to 6.00
COc1ccc(C(=O)Nc2cccc3nc(-c4c(NCc5ccccn5)cc[nH]c4=O)[nH]c23)cc1 [Example A-6, 4-Methoxy-N-(2-{2-oxo-4-[(pyridin-2-ylmethyl)-amino]-1,2-dihydro-pyridin-3-yl}-3H-benzoimidazol-4-yl)-benzamide] | 4.82 to 6.00
O=C(Nc1cccc2nc(-c3c(NC[C@@H](O)c4ccccc4)cc[nH]c3=O)[nH]c12)c1ccco1 [Example B-19, Furan-2-carboxylic acid {2-[4-((S)-2-hydroxy-2-phenyl-ethylamino)-2-oxo-1,2-dihydro-pyridin-3-yl]-3H-benzoimidazol-4-yl}-amide] | 4.82 to 6.00
O=C(Nc1cccc2nc(-c3c(NC[C@@H](O)c4ccccc4)cc[nH]c3=O)[nH]c12)c1cccc(F)c1 [Example B-15, 3-Fluoro-N-{2-[4-((S)-2-hydroxy-2-phenyl-ethylamino)-2-oxo-1,2-dihydro-pyridin-3-yl]-3H-benzoimidazol-4-yl}-benzamide] | 5.16
O=C(Nc1cccc2nc(-c3c(NC[C@@H](O)c4ccccc4)cc[nH]c3=O)[nH]c12)c1ccccc1F [Example B-9, 2-Fluoro-N-{2-[4-((S)-2-hydroxy-2-phenyl-ethylamino)-2-oxo-1,2-dihydro-pyridin-3-yl]-3H-benzoimidazol-4-yl}-benzamide] | 4.82 to 6.00
COc1ccc(C(=O)Nc2cccc3nc(-c4c(NCc5ccccc5)cc[nH]c4=O)[nH]c23)cc1 [Example A-3, N-[2-(4-Benzylamino-2-oxo-1,2-dihydro-pyridin-3-yl)-3H-benzoimidazol-4-yl]-4-methoxy-benzamide] | 4.82 to 6.00
COCCOC(=O)Nc1cccc2nc(-c3c(NC[C@@H](O)c4ccccc4)cc[nH]c3=O)[nH]c12 [Example C-2, {2-[4-((S)-2-Hydroxy-2-phenyl-ethylamino)-2-oxo-1,2-dihydro-pyridin-3-yl]-3H-benzoimidazol-4-yl}-carbamic acid 2-methoxy-ethyl ester] | 4.82 to 6.00
CC(C)(OC(=O)Nc1cccc2nc(-c3c(NC[C@@H](O)c4ccccc4)cc[nH]c3=O)[nH]c12)C(Cl)(Cl)Cl [Example C-3, {2-[4-((S)-2-Hydroxy-2-phenyl-ethylamino)-2-oxo-1,2-dihydro-pyridin-3-yl]-3H-benzoimidazol-4-yl}-carbamic acid 2,2,2-trichloro-1,1-dimethyl-ethyl ester] | 4.82 to 6.00
COc1ccc(NC(=O)Nc2cccc3nc(-c4c(NC[C@@H](O)c5ccccc5)cc[nH]c4=O)[nH]c23)cc1 [Example D-2, 1-{2-[4-((S)-2-Hydroxy-2-phenyl-ethylamino)-2-oxo-1,2-dihydro-pyridin-3-yl]-3H-benzoimidazol-4-yl}-3-(4-methoxy-phenyl)-urea] | 4.82 to 6.00
